# Results from US11306081B2, “Phenylacetamides as inhibitors of rock” (BRISTOL-MYERS SQUIBB COMPANY, priority 2017, dated 2022).
# Target: ROCK2 (Homo sapiens (Human), UniProt O75116)
# Test: ROCK assay (LABCHIP 3000 peptide phosphorylation assay)
# Assay type: biochemical
# Details: 5 μM ATP, 1.5 μM peptide substrate, dose-response
# Protocol: The effectiveness of compounds of the present invention as ROCK inhibitors can be determined in a 30 μL assay containing 20 mM HEPES, pH 7.5, 20 mM MgCl2, 0.015% Brij-35, 4 mM DTT, 5 μM ATP and 1.5 μM peptide substrate (FITC-AHA-AKRRRLSSLRA-OH) (SEQ ID No. 1). Compounds were dissolved in DMSO so that the final concentration of DMSO was <2%, and the reaction was initiated with Rho kinase variants. After incubation, the reaction was terminated by the addition of EDTA and the phosphorylated and non-phosphorylated peptides separated using a LABCHIP® 3000 Reader (Caliper Life Sciences). […] Compounds were tested in dose-response format, and the inhibition of kinase activity was calculated at each concentration of compound. The inhibition data were fit using a curve-fitting program to determine the IC50; i.e., the concentration of compound required to inhibit 50% of kinase activity.
# Sequence of ROCK2 (O75116 whole entry, species assumed): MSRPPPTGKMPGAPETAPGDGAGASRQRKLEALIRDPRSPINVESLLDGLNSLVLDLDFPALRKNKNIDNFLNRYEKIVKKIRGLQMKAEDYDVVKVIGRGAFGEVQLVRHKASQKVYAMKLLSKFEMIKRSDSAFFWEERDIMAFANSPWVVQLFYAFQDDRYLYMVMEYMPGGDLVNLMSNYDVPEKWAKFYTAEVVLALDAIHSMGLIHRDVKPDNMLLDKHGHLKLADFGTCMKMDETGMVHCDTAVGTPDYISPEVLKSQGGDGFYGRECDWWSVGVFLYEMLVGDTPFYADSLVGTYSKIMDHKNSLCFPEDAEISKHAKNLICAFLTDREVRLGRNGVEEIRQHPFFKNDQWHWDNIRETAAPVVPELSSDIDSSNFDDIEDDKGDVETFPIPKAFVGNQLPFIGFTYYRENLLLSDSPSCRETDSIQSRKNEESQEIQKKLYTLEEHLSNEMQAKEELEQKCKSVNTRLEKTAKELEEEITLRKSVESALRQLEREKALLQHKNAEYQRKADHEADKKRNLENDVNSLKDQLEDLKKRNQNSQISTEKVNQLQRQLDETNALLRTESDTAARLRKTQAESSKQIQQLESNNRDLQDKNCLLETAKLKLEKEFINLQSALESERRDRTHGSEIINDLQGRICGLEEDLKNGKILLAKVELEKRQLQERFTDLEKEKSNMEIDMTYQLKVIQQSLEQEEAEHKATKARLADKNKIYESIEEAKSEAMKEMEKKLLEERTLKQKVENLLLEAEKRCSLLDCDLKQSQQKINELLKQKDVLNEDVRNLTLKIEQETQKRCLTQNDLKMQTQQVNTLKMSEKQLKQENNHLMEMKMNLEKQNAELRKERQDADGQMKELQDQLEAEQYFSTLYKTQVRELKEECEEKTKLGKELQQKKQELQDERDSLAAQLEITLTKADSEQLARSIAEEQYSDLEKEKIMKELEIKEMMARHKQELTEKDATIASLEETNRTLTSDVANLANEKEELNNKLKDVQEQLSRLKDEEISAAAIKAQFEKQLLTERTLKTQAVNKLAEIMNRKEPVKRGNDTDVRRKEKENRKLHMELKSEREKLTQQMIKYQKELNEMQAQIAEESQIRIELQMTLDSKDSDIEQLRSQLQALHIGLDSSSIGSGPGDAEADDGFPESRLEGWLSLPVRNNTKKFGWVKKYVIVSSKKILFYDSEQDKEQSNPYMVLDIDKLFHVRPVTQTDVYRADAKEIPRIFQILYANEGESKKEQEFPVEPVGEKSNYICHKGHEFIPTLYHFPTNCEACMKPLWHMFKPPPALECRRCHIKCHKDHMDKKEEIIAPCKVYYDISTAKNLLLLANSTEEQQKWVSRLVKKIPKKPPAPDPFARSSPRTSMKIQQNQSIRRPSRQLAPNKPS
row,SMILES,IC50
1,"Cc1sc(NC(=O)Cc2ccc(Oc3ncccc3C(N)=O)c(F)c2)nc1-c1cnc(N2CCN(C)CC2)nc1 [Example 039, 2-(2-fluoro-4-(2-((5-methyl-4-(2-(4-methylpiperazin-1-yl)pyrimidin-5-yl)thiazol-2-yl)amino)-2-oxoethyl)phenoxy)nico-tinamide]",0.183 µM
2,"Cc1sc(NC(=O)Cc2ccc(Oc3ncccc3C(N)=O)c(F)c2)nc1-c1cncnc1 [Example 041, 2-(2-fluoro-4-(2-((5-methyl-4-(pyrimidin-5-yl)thiazol-2-yl)amino)-2-oxoethyl)phenoxy)nico-tinamide]",0.175 µM
3,"Cc1sc(NC(=O)Cc2ccc(Oc3ncccc3C(N)=O)c(F)c2)nc1-c1cnc(C(C)(C)O)nc1 [Example 042, 2-(2-fluoro-4-(2-((4-(2-(2-hydroxypropan-2-yl)pyrimidin-5-yl)-5-methylthiazol-2-yl)amino)-2-oxoethyl)phenoxy)nico-tinamide]",0.471 µM
4,"NC(=O)c1cccnc1Oc1ccc(CC(=O)Nc2nc3ccccc3s2)cc1 [Example 049, 2-(4-(2-(benzo[d]thiazol-2-ylamino)-2-oxoethyl)phenoxy) nicotinamide]",0.194 µM
5,"Cc1ccc(-c2nc(NC(=O)Cc3ccc(Oc4ncccc4C(N)=O)cc3)sc2C)cc1Cl [Example 050, 2-(4-(2-((4-(3-chloro-4-methylphenyl)-5-methylthiazol-2-yl)amino)-2-oxoethyl)phenoxy) nicotinamide]",0.175 µM
6,"NC(=O)c1cccnc1Oc1ccc(CC(=O)Nc2nc(-c3ccccc3)cs2)cc1 [Example 052, 2-(4-(2-oxo-2-((4-phenylthiazol-2-yl)amino)ethyl)phe-noxy)nicotinamide]",0.177 µM
7,"NC(=O)c1cccnc1Oc1ccc(CC(=O)Nc2nc3ccccc3o2)cc1 [Example 054, 2-(4-(2-(benzo[d]oxazol-2-ylamino)-2-oxoethyl)phenoxy) nicotinamide]",0.364 µM
8,"Cc1nnc(NC(=O)Cc2ccc(Oc3ncccc3C(N)=O)cc2)s1 [Example 055, 2-(4-(2-((5-methyl-1,3,4-thiadiazol-2-yl)amino)-2-oxoethyl)phenoxy) nicotinamide]",1.11 µM
9,"COc1cc(C#N)c2c(c1)CCN2C(=O)Cc1ccc(Oc2ncccc2C(N)=O)cc1 [Example 056, 2-(4-(2-(7-cyano-5-methoxyindolin-1-yl)-2-oxoethyl)phenoxy) nicotinamide]",1.09 µM
10,"NC(=O)c1cccnc1Oc1ccc(CC(=O)Nc2nc(-c3ccc4c(c3)OCCO4)cs2)cc1 [Example 057, 2-(4-(2-((4-(2,3-dihydrobenzo[b][1, 4]dioxin-6-yl)thiazol-2-yl)amino)-2-oxoethyl)phenoxy) nicotinamide]",0.186 µM
11,"NC(=O)c1cccnc1Oc1ccc(CC(=O)Nc2nnc(-c3ccccc3)s2)cc1 [Example 058, 2-(4-(2-oxo-2-((5-phenyl-1,3,4-thiadiazol-2-yl)amino)ethyl)phe-noxy)nicotinamide]",0.419 µM

# The next compounds have a lower IC50 than those just listed; values first:
row,IC50,SMILES
1,0.145 µM,"COc1ccc(-c2csc(NC(=O)Cc3ccc(Oc4ncccc4C(N)=O)cc3)n2)cc1OC [Example 051, 2-(4-(2-((4-(3,4-dimethoxyphenyl)thiazol-2-yl)amino)-2-oxoethyl)phenoxy) nicotinamide]"
2,0.112 µM,"Cc1sc(NC(=O)Cc2ccc(Oc3ncccc3C(N)=O)c(F)c2)nc1-c1ccc(S(=O)(=O)C(C)C)cc1 [Example 048, 2-(2-fluoro-4-(2-((4-(4-(isopropylsulfonyl)phe-nyl)-5-methylthiazol-2-yl)amino)-2-oxoethyl)phenoxy)nico-tinamide]"
3,0.099 µM,"COc1ncc(-c2nc(NC(=O)Cc3ccc(Oc4ncccc4C(N)=O)c(F)c3)sc2C)cn1 [Example 040, 2-(2-fluoro-4-(2-((4-(2-methoxypyrimidin-5-yl)-5-methylthiazol-2-yl)amino)-2-oxoethyl)phenoxy)nico-tinamide]"
4,0.084 µM,"Cc1sc(NC(=O)Cc2ccc(Oc3ncccc3C(N)=O)c(F)c2)nc1-c1ccc(S(C)(=O)=O)cc1 [Example 047, 2-(2-fluoro-4-(2-((5-methyl-4-(4-(methylsulfonyl)phenyl)thiazol-2-yl)amino)-2-oxoethyl)phenoxy)nico-tinamide]"
5,0.0696 µM,"COc1cccc(-c2nc(NC(=O)Cc3ccc(Oc4ncccc4C(N)=O)c(F)c3)sc2C)n1 [Example 043, 2-(2-fluoro-4-(2-((4-(6-methoxypyridin-2-yl)-5-methylthiazol-2-yl)amino)-2-oxoethyl)phenoxy)nico-tinamide]"
6,0.048 µM,"Cn1cc(-c2ccc3nc(NC(=O)Cc4ccc(Oc5ncccc5C(N)=O)c(F)c4)cn3c2)cn1 [Example 036, 2-(2-fluoro-4-(2-((6-(1-methyl-1H-pyrazol-4-yl)imidazo[1,2-a]pyridin-2-yl)amino)-2-oxoethyl)phenoxy)nico-tinamide]"
7,0.034 µM,"Cn1cc(-c2ccc3nc(NC(=O)Cc4ccc(Oc5ncccc5C(N)=O)c(Cl)c4)cn3c2)cn1 [Example 037, 2-(2-chloro-4-(2-((6-(1-methyl-1H-pyrazol-4-yl)imidazo[1,2-a]pyridin-2-yl)amino)-2-oxoethyl)phenoxy)nico-tinamide]"
8,0.03 µM,"Cn1cc(-c2ccc3c(c2)nc(NC(=O)Cc2ccc(Oc4ncccc4C(N)=O)c(F)c2)n3CC(F)(F)F)cn1 [Example 038, 2-(2-fluoro-4-(2-((5-(1-methyl-1H-pyrazol-4-yl)-1-(2,2,2-trifluoroethyl)-1H-benzo[d]imidazol-2-yl)amino)-2-oxoethyl)phenoxy)nico-tinamide]"
9,0.024 µM,"Cc1sc(NC(=O)Cc2ccc(Oc3ncccc3C(N)=O)c(F)c2)nc1-c1ccncc1 [Example 044, 2-(2-fluoro-4-(2-((5-methyl-4-(pyridin-4-yl)thiazol-2-yl)amino)-2-oxoethyl)phenoxy)nico-tinamide]"
10,0.022 µM,"Cc1sc(NC(=O)Cc2ccc(Oc3ncccc3C(N)=O)c(F)c2)nc1C1CC1 [Example 046, 2-(4-(2-((4-cyclopropyl-5-methylthiazol-2-yl)amino)-2-oxoethyl)-2-fluorophenoxy)nicotin-amide]"
11,0.021 µM,"Cc1sc(NC(=O)Cc2ccc(Oc3ncccc3C(N)=O)c(F)c2)nc1-c1cccc(C#N)n1 [Example 045, 2-(4-(2-((4-(6-cyanopyridin-2-yl)-5-methylthiazol-2-yl)amino)-2-oxoethyl)-2-fluorophenoxy)nicotin-amide]"
12,0.021 µM,"COc1ccc2c(c1)CCc1sc(NC(=O)Cc3ccc(Oc4ncccc4C(N)=O)cc3)nc1-2 [Example 053, 2-(4-(2-((7-methoxy-4,5-dihydronaphtho[1,2-d]thiazol-2-yl)amino)-2-oxoethyl)phenoxy) nicotinamide]"
13,0.01 µM,"Cn1cc(-c2ccc3sc(NC(=O)Cc4ccc(Oc5ncccc5C(N)=O)c(F)c4)nc3c2)cn1 [Example 035, 2-(2-fluoro-4-(2-((5-(1-methyl-1H-pyrazol-4-yl)benzo[d]thiazol-2-yl)amino)-2-oxoethyl)phenoxy)nico-tinamide]"
14,0.008 µM,"[2H]C([2H])([2H])n1ccc(-c2ccc3sc(NC(=O)Cc4ccc(Oc5ncccc5C(N)=O)c(F)c4)nc3c2)n1 [Example 034, 2-(2-fluoro-4-(2-((5-(1-(methyl-d3)-1H-pyrazol-3-yl)benzo[d]thiazol-2-yl)amino)-2-oxoethyl)phenoxy)nico-tinamide]"
15,0.007 µM,"Cn1ccc(-c2ccc3sc(NC(=O)Cc4ccc(Oc5ncccc5C(N)=O)c(F)c4)nc3c2)n1 [Example 033, 2-(2-fluoro-4-(2-((5-(1-methyl-1H-pyrazol-3-yl)benzo[d]thiazol-2-yl)amino)-2-oxoethyl)phenoxy)nico-tinamide]"
